According to patent publication US6518243B1, “Desleucyl glycopeptide antibiotics and methods of making same” (Trustees of Princeton University, priority 1999, dated 2003):

Tests used:
E. faceium (ATCC 49624) = test: Zone of inhibition screen, 96 well agar array format;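 further: score 3 means fourfold and score 4 sixteenfold the reference zone size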; type: cell-based, E. faecium
Method: The antibacterial activity of each of the compounds against the bacterial strains E. faceium (ATCC 49624), S. epidermidis (ATCC 12228), S. aureus (ATCC 29213), E. faecalis (CL 4877) and E. faecalis (ATCC 292121) was tested. Each of the compounds was screened in a 96 will agar array format.

E. faecalis (CL 4877) = test: as above; type: cell-based; set-up: scale not given here
Procedure, shortened: (§1)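 Antibacterial testing on a 96-well agar array; each compound screened separately.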

[1] = tested on: S. epidermidis (ATCC 12228); test: as above; type: cell-based; set-up: scale not given here
Procedure, shortened: as §1

S. aureus (ATCC 29213) = test: as above; type: cell-based; set-up: scale not given here
Procedure, shortened: as §1

E. faecium ATCC 49624 = test: MIC determination in BHI media, OD600; type: cell-based; conditions: BHI + 0.1% casamino acids, 18 hours at 37° C., ≧90% OD600 inhibition
Method: (§2) Logarithmically growing cells were diluted to approximately 5×10^5 CFU/ml and subjected to test compounds solubilized and serially diluted in DMSO. […] After 18 hours at 37° C., the OD600 was determined by reading the ninety-six well microtiter plates on a microplate reader. For a given concentration, an MIC determination was made if: […]

S aureus ATCC 29213 = test: MIC determination in BHI media, OD600; type: cell-based; conditions: BHI + 0.1% casamino acids, 18 hours at 37° C., ≧90% OD600 inhibition
Method: as §2

S. Aureus ATCC 33591 = test: MIC determination in BHI media, OD600; type: cell-based; conditions: BHI + 0.1% casamino acids, 18 hours at 37° C., ≧90% OD600 inhibition
Method: as §2

E. faecium CL 4931 = test: MIC determination in BHI media, OD600; type: cell-based; conditions: BHI + 0.1% casamino acids, 18 hours at 37° C., ≧90% OD600 inhibition
Method: as §2

[2] = zone of inhibition relative to 1 mg/ml stock solution of p-chlorobiphenylvancomycin
[3] = zone of inhibition relative to 1 mg/ml p-chlorobiphenylvancomycin

Row | Compound | zone score, E. faecium ATCC 49624 (E. faceium (ATCC 49624); [2]) | zone score, E. faecalis CL 4877 (E. faecalis (CL 4877); [2]) | zone score, S. epidermidis ATCC 12228 [1, 2] | zone score, S. aureus ATCC 29213 (S. aureus (ATCC 29213); [2]) | MIC E. faecium CL 4931 (E. faecium CL 4931) | further results
1 | CC1OC(OC2C(Oc3c4cc5cc3Oc3ccc(cc3Cl)C(O)C3NC(=O)C(NC(=O)C5NC(=O)C(CC(N)=O)NC(=O)C(NC(=O)CC(O)C[N+](C)(C)C)C(O)c5ccc(c(Cl)c5)O4)c4ccc(O)c(c4)-c4c(O)cc(O)cc4C(C(=O)O)NC3=O)OC(CO)C(O)C2O)CC(C)(NCc2ccc(-c3ccc(Cl)cc3)cc2)C1O (mixture of isomers) [Compound 151] | 2 | 2 | 2 |  |  | 
2 | CC1OC(OC2C(Oc3c4cc5cc3Oc3ccc(cc3Cl)C(O)C3NC(=O)C(NC(=O)C5NC(=O)C(CC(N)=O)NC(=O)C(NC(=O)C(N)Cc5cccs5)C(O)c5ccc(c(Cl)c5)O4)c4ccc(O)c(c4)-c4c(O)cc(O)cc4C(C(=O)O)NC3=O)OC(CO)C(O)C2O)CC(C)(NCc2ccc(-c3ccc(Cl)cc3)cc2)C1O (stereo not shown) [Compound 10] | 2 |  |  | 2 |  | 
3 | CC1OC(OC2C(Oc3c4cc5cc3Oc3ccc(cc3Cl)C(O)C3NC(=O)C(NC(=O)C5NC(=O)C(CC(N)=O)NC(=O)C(NC(=O)Cn5cccc(N)c5=O)C(O)c5ccc(c(Cl)c5)O4)c4ccc(O)c(c4)-c4c(O)cc(O)cc4C(C(=O)O)NC3=O)OC(CO)C(O)C2O)CC(C)(NCc2ccc(-c3ccc(Cl)cc3)cc2)C1O (stereo not shown) [Compound 32] | 2 | 2 |  | 2 |  | 
4 | CC1OC(OC2C(Oc3c4cc5cc3Oc3ccc(cc3Cl)C(O)C3NC(=O)C(NC(=O)C5NC(=O)C(CC(N)=O)NC(=O)C(NC(=O)CN5CCN(CCN)CC5)C(O)c5ccc(c(Cl)c5)O4)c4ccc(O)c(c4)-c4c(O)cc(O)cc4C(C(=O)O)NC3=O)OC(CO)C(O)C2O)CC(C)(NCc2ccc(-c3ccc(Cl)cc3)cc2)C1O (stereo not shown) [Compound 33] | 2 | 2 |  | 2 |  | 
5 | CC(C)CC(N)C(=O)NC1C(=O)NC(CC(N)=O)C(=O)NC2C(=O)NC3C(=O)NC(C(=O)NC(C(=O)O)c4cc(O)cc(O)c4-c4cc3ccc4O)C(O)c3ccc(c(Cl)c3)Oc3cc2cc(c3OC2OC(CO)C(O)C(O)C2OC2CC(C)(NCc3ccc(-c4ccc(Cl)cc4)cc3)C(O)C(C)O2)Oc2ccc(cc2Cl)C1O (stereo not shown) [Compound 38] | 2 |  |  | 2 |  | MIC E. faecium ATCC 49624 (E. faecium ATCC 49624): 0.78 µg/mL; MIC S. aureus ATCC 29213 (S aureus ATCC 29213): 0.78 µg/mL; MIC S. aureus ATCC 33591 (S. Aureus ATCC 33591): 0.78 µg/mL
6 | CC1OC(OC2C(Oc3c4cc5cc3Oc3ccc(cc3Cl)C(O)C3NC(=O)C(NC(=O)C5NC(=O)C(CC(N)=O)NC(=O)C(NC(=O)CNC(=O)CN)C(O)c5ccc(c(Cl)c5)O4)c4ccc(O)c(c4)-c4c(O)cc(O)cc4C(C(=O)O)NC3=O)OC(CO)C(O)C2O)CC(C)(NCc2ccc(-c3ccc(Cl)cc3)cc2)C1O (stereo not shown) [Compound 68] | 2 |  |  |  |  | MIC E. faecium ATCC 49624 (E. faecium ATCC 49624): 0.39 µg/mL; MIC S. aureus ATCC 29213 (S aureus ATCC 29213): 0.78 µg/mL; MIC S. aureus ATCC 33591 (S. Aureus ATCC 33591): 0.78 µg/mL
7 | CC1OC(OC2C(Oc3c4cc5cc3Oc3ccc(cc3Cl)C(O)C3NC(=O)C(NC(=O)C5NC(=O)C(CC(N)=O)NC(=O)C(NC(=O)C5CC(O)CN5)C(O)c5ccc(c(Cl)c5)O4)c4ccc(O)c(c4)-c4c(O)cc(O)cc4C(C(=O)O)NC3=O)OC(CO)C(O)C2O)CC(C)(NCc2ccc(-c3ccc(Cl)cc3)cc2)C1O (stereo not shown) [Compound 72] | 2 | 2 | 2 |  |  | 
8 | CC(=O)NCCCCC(N)C(=O)NC1C(=O)NC(CC(N)=O)C(=O)NC2C(=O)NC3C(=O)NC(C(=O)NC(C(=O)O)c4cc(O)cc(O)c4-c4cc3ccc4O)C(O)c3ccc(c(Cl)c3)Oc3cc2cc(c3OC2OC(CO)C(O)C(O)C2OC2CC(C)(NCc3ccc(-c4ccc(Cl)cc4)cc3)C(O)C(C)O2)Oc2ccc(cc2Cl)C1O (stereo not shown) [Compound 76] | 2 |  | 2 |  |  | 
9 | CC1OC(OC2C(Oc3c4cc5cc3Oc3ccc(cc3Cl)C(O)C3NC(=O)C(NC(=O)C5NC(=O)C(CC(N)=O)NC(=O)C(NC(=O)C(N)CCCC[N+](C)(C)C)C(O)c5ccc(c(Cl)c5)O4)c4ccc(O)c(c4)-c4c(O)cc(O)cc4C(C(=O)O)NC3=O)OC(CO)C(O)C2O)CC(C)(NCc2ccc(-c3ccc(Cl)cc3)cc2)C1O.[Cl-] (stereo not shown) [Compound 80] | 2 |  |  | 2 |  | 
10 | CC(=O)NCSC(C)(C)C(N)C(=O)NC1C(=O)NC(CC(N)=O)C(=O)NC2C(=O)NC3C(=O)NC(C(=O)NC(C(=O)O)c4cc(O)cc(O)c4-c4cc3ccc4O)C(O)c3ccc(c(Cl)c3)Oc3cc2cc(c3OC2OC(CO)C(O)C(O)C2OC2CC(C)(NCc3ccc(-c4ccc(Cl)cc4)cc3)C(O)C(C)O2)Oc2ccc(cc2Cl)C1O (stereo not shown) [Compound 84] | 2 |  | 2 | 2 |  | 
11 | CC1OC(OC2C(Oc3c4cc5cc3Oc3ccc(cc3Cl)C(O)C3NC(=O)C(NC(=O)C5NC(=O)C(CC(N)=O)NC(=O)C(NC(=O)CNC(=O)C5CCCN5)C(O)c5ccc(c(Cl)c5)O4)c4ccc(O)c(c4)-c4c(O)cc(O)cc4C(C(=O)O)NC3=O)OC(CO)C(O)C2O)CC(C)(NCc2ccc(-c3ccc(Cl)cc3)cc2)C1O (stereo not shown) [Compound 85] | 2 | 2 | 2 | 2 |  | 
12 | CC1OC(OC2C(Oc3c4cc5cc3Oc3ccc(cc3Cl)C(O)C3NC(=O)C(NC(=O)C5NC(=O)C(CC(N)=O)NC(=O)C(NC(=O)C(CC(N)=O)NC(=O)OC(C)(C)C)C(O)c5ccc(c(Cl)c5)O4)c4ccc(O)c(c4)-c4c(O)cc(O)cc4C(C(=O)O)NC3=O)OC(CO)C(O)C2O)CC(C)(NCc2ccc(-c3ccc(Cl)cc3)cc2)C1O (stereo not shown) [Compound 135] |  |  | 2 | 2 | > 25 µg/mL | MIC E. faecium ATCC 49624 (E. faecium ATCC 49624): 0.39 µg/mL
13 | CC1OC(OC2C(Oc3c4cc5cc3Oc3ccc(cc3Cl)C(O)C3NC(=O)C(NC(=O)C5NC(=O)C(CC(N)=O)NC(=O)C(NC(=O)C(CC[S+](C)[O-])NC(=O)OC(C)(C)C)C(O)c5ccc(c(Cl)c5)O4)c4ccc(O)c(c4)-c4c(O)cc(O)cc4C(C(=O)O)NC3=O)OC(CO)C(O)C2O)CC(C)(NCc2ccc(-c3ccc(Cl)cc3)cc2)C1O (stereo not shown) [Compound 142] | 2 | 2 |  | 2 |  | 
14 | CC(=O)c1ccc(C(=O)NC2C(=O)NC(CC(N)=O)C(=O)NC3C(=O)NC4C(=O)NC(C(=O)NC(C(=O)O)c5cc(O)cc(O)c5-c5cc4ccc5O)C(O)c4ccc(c(Cl)c4)Oc4cc3cc(c4OC3OC(CO)C(O)C(O)C3OC3CC(C)(NCc4ccc(-c5ccc(Cl)cc5)cc4)C(O)C(C)O3)Oc3ccc(cc3Cl)C2O)cc1 (stereo not shown) [Compound 267] |  |  |  |  |  | zone score, E. faecium ATCC 49624 (E. faceium (ATCC 49624); [3]): 2; zone score, S. epidermidis ATCC 12228 [1, 3]: 2
15 | CCOCC(=O)NC1C(=O)NC(CC(N)=O)C(=O)NC2C(=O)NC3C(=O)NC(C(=O)NC(C(=O)O)c4cc(O)cc(O)c4-c4cc3ccc4O)C(O)c3ccc(c(Cl)c3)Oc3cc2cc(c3OC2OC(CO)C(O)C(O)C2OC2CC(C)(NCc3ccc(-c4ccc(Cl)cc4)cc3)C(O)C(C)O2)Oc2ccc(cc2Cl)C1O (stereo not shown) [Compound 287] |  |  |  |  | 25 µg/mL | zone score, E. faecalis CL 4877 (E. faecalis (CL 4877); [3]): 2; zone score, S. aureus ATCC 29213 (S. aureus (ATCC 29213); [3]): 2; zone score, S. epidermidis ATCC 12228 [1, 3]: 2
16 | COCC(=O)NC1C(=O)NC(CC(N)=O)C(=O)NC2C(=O)NC3C(=O)NC(C(=O)NC(C(=O)O)c4cc(O)cc(O)c4-c4cc3ccc4O)C(O)c3ccc(c(Cl)c3)Oc3cc2cc(c3OC2OC(CO)C(O)C(O)C2OC2CC(C)(NCc3ccc(-c4ccc(Cl)cc4)cc3)C(O)C(C)O2)Oc2ccc(cc2Cl)C1O (stereo not shown) [Compound 303] |  |  |  |  | 25 µg/mL | zone score, S. epidermidis ATCC 12228 [1, 3]: 2
17 | CC1OC(OC2C(Oc3c4cc5cc3Oc3ccc(cc3Cl)C(O)C3NC(=O)C(NC(=O)C5NC(=O)C(CC(N)=O)NC(=O)C(NC(=O)C(N)CSCc5ccccc5)C(O)c5ccc(c(Cl)c5)O4)c4ccc(O)c(c4)-c4c(O)cc(O)cc4C(C(=O)O)NC3=O)OC(CO)C(O)C2O)CC(C)(NCc2ccc(-c3ccc(Cl)cc3)cc2)C1O (stereo not shown) [Compound 332] |  |  |  |  | 25 µg/mL | 
18 | CNC(COC(C)(C)C)C(=O)NC1C(=O)NC(CC(N)=O)C(=O)NC2C(=O)NC3C(=O)NC(C(=O)NC(C(=O)O)c4cc(O)cc(O)c4-c4cc3ccc4O)C(O)c3ccc(c(Cl)c3)Oc3cc2cc(c3OC2OC(CO)C(O)C(O)C2OC2CC(C)(NCc3ccc(-c4ccc(Cl)cc4)cc3)C(O)C(C)O2)Oc2ccc(cc2Cl)C1O (stereo not shown) [Compound 343] |  |  |  |  | 25 µg/mL | MIC E. faecium ATCC 49624 (E. faecium ATCC 49624): 0.39 µg/mL; MIC S. aureus ATCC 33591 (S. Aureus ATCC 33591): 0.78 µg/mL
19 | CC(OC(C)(C)C)C(N)C(=O)NC1C(=O)NC(CC(N)=O)C(=O)NC2C(=O)NC3C(=O)NC(C(=O)NC(C(=O)O)c4cc(O)cc(O)c4-c4cc3ccc4O)C(O)c3ccc(c(Cl)c3)Oc3cc2cc(c3OC2OC(CO)C(O)C(O)C2OC2CC(C)(NCc3ccc(-c4ccc(Cl)cc4)cc3)C(O)C(C)O2)Oc2ccc(cc2Cl)C1O (stereo not shown) [Compound 344] |  |  |  |  | 25 µg/mL | MIC E. faecium ATCC 49624 (E. faecium ATCC 49624): 0.78 µg/mL
